Patent US20040224884A1, “Methods of screening for apoptosis-controlling agents for bone anabolic therapies and uses thereof” (priority 1998, published 2004)
“And” between values parts separate entries of the source, which are not always exact repeats. Equal values may be shown once.

Experiments:
[1] = BMD by dual-energy x-ray absorptiometry in intact or ovariectomized mice; assay type: in vivo; parameters: global 1 BMD / hindquart BMD (1) / spine 1 BMD / global 2 BMD / hindquart BMD (2) / spine 2 BMD / global 1 BMD (mean) / hindquart BMD (1) (mean) / spine 1 BMD (mean) / global 2 BMD (mean) / hindquart BMD (2) (mean) / spine 2 BMD (mean): unit not given here; details: for Global BMD: 2000 ng/g body weight for 28 days; for global 2 BMD / hindquart BMD (2) / spine 2 BMD / global 2 BMD (mean) / hindquart BMD (2) (mean) / spine 2 BMD (mean): 2000 ng/g for 28 days, end of experiment; for global 2 BMD / hindquart BMD (2) / spine 2 BMD / global 1 BMD / hindquart BMD (1) / spine 1 BMD: individual animals; for global 1 BMD / hindquart BMD (1) / spine 1 BMD / global 1 BMD (mean) / hindquart BMD (1) (mean) / spine 1 BMD (mean): 2000 ng/g group, day 0 (initial)
Description: In a representative experiment of this sort, six 4-5 month old female mice per group are screened twice for BMD in a four week period immediately prior to the initiation of the experiment to establish that peak adult bone mass has been attained. A subset of mice are then ovariectomized. Intact and ovariectomized mice are treated with vehicle, or 20, 200 or 2000 ng/g body weight estratriene-3-ol or another test compound.
Stock solutions of the test agents (10,000 μg/ml) are maintained in approximately 2.0 ml of 95% ethanol. These stocks are diluted in 95% ethanol to make 1000 μg/ml and 100 μg/ml concentrations. The concentration of the stocks is checked spectrophotometrically. For each animal injection, the test agent is diluted in sesame oil and sonicated. Test agents are administered for 28 days by subcutaneous injections on alternative days. The mice are weighed weekly and serum samples are collected at appropriate times for analysis of bone biochemical markers, such as osteocalcin or collagen cross-links. Tetracycline labeling is performed by administration of the antibiotic (30 mg/kg) at 2 and 8 days prior to the end of each experiment.
During the 28 day experiment, BMD is determined in live animals at day 0, 14 and 28. Following animal sacrifice at the end of the experiment, the vertebral bones L1-L4 are collected for fixation and embedded undecalcified in methyimethacrylate plastic for the determination of the prevalence of osteoblast and osteocyte apoptosis and other static and dynamic histomorphometric measurements. L5 vertebrae are isolated for determining anti-fracture efficacy of the compounds by assaying compression, 3 point bending and other appropriate biomechanical tests. Results confirming the expected efficacy of these compounds show decreased prevalence of osteoblast and/or osteocyte apoptosis, and/or positive BMD changes, and/or increased cancellous bone area, and/or increased rate of bone formation, and/or increased biomechanical strength.
As an example, the results of an experiment whereby 2000 ng/g body weight of estratriene-3-ol was administered for 28 days to estrogen-replete (intact) or estrogen-deficient (ovariectomized) mice are shown in Table 2.
Each row represents values for individual animals. The first three sets of numbers represent the initial BMD measurements (by dual-energy x-ray absorptiometry with Hologic QDR2000 plus, using customized software) at day 0 and the last three BMD measurements at the end of the experiment. Global=BMD of the entire skeleton minus the head and tail; hindquarters=the mean BMD of both hindlimbs; spine=the BMD of cervical, thoracic and lumbar spine.

[2] = Vertebral compression strength of fifth lumbar vertebrae (L5); assay type: in vivo, mice; details: 2000 ng/g body weight for 28 days
Description: In a representative experiment of this sort, seven 4-5 month old female mice per group-are screened twice for BMD in a four week period immediately prior to the initiation of the experiment to establish that peak adult bone mass has been attained. A subset of mice are then ovariectomized. Intact and ovariectomized mice are treated with vehicle, or 20, 200 or 2000 ng/g body weight estratriene-3-ol or another ANGEL compound. […] Ultimate load bearing properties of the fifth lumbar murine vertebrae (L5) is determined. This is done using a servohydraulic axial-torsional material testing machine (Model MTS 810 Bionx; MTS Systems Corp., Eden Prairie, Minn.) and a Lebow load cell (Eaton Products, Troy, Mich.). Data are recorded and analyzed using the LabVIEW software package and an acquisition/signal conditioning board (Model NB-MIO-16, National Instruments Corporation, Austin, Tex.). The L5 specimens that is used for ultimate load bearing is cleaned of surrounding soft tissue and the length and diameter recorded with a digital caliper at a resolution of 0.01 mm (Mitutoyo Model #500-196, Ace Tools, Ft. Smith, Ariz.). […] Vertebrae are individually compressed between parallel loading platens along the cephalocaudad axis until failure and the ultimate load (in Newtons) and displacement (in mm) are recorded. […]

In the case of C[C@@]12CCC[C@H]1[C@@H]1CCc3cc(O)ccc3[C@H]1CC2 [estratriene-3-ol], the “Global BMD” value ([1]; Ovx mice, p < 0.00001) is reported as 0.0555 ± 0.0011 g/cm2, the “global 2 BMD” value ([1]; Ovx mice) is reported as 0.0565 and 0.0557 and 0.0548 and 0.0545 and 0.0564 and 0.0568 and 0.0550 and 0.0539 and the “hindquart BMD (2)” value ([1]; Ovx mice) is reported as 0.0602 and 0.0632 and 0.0599 (2×) and 0.0624 and 0.0598 and 0.0647 and 0.0630. The “spine 2 BMD” value ([1]; Ovx mice) was 0.0608 and 0.0585 and 0.0584 and 0.0598 and 0.0610 and 0.0625 and 0.0578 and 0.0605, the “global 2 BMD (mean)” value ([1]; Ovx mice) was 0.0555 and the “hindquart BMD (2) (mean)” value ([1]; Ovx mice) was 0.0618. For the same compound, the “spine 2 BMD (mean)” value ([1]; Ovx mice) was 0.0599, the “global 1 BMD” value ([1]; Ovx mice) was 0.0505 and 0.0542 and 0.0496 and 0.0540 and 0.0526 and 0.0569 and 0.0565 and 0.0528 and the “hindquart BMD (1)” value ([1]; Ovx mice) was 0.0527 and 0.0588 and 0.0504 and 0.0596 and 0.0547 and 0.0604 and 0.0591 and 0.0582. For the same compound, the “spine 1 BMD” value ([1]; Ovx mice) was 0.0547 and 0.0581 and 0.0542 and 0.0586 and 0.0580 and 0.0628 and 0.0603 and 0.0568, the “global 1 BMD (mean)” value ([1]; Ovx mice) was 0.0534 and the “hindquart BMD (1) (mean)” value ([1]; Ovx mice) was 0.0573. For the same compound, the “spine 1 BMD (mean)” value ([1]; Ovx mice) was 0.0579, the “Global BMD” value ([1]; intact mice, p < 0.002) was 0.0554 ± 0.0015 g/cm2 and the “global 2 BMD” value ([1]; intact mice) was 0.0550 and 0.0543 and 0.0541 and 0.0568 (2×) and 0.0537 and 0.0574. For the same compound, the “hindquart BMD (2)” value ([1]; intact mice) was 0.0585 and 0.0603 and 0.0619 and 0.0629 and 0.0640 and 0.0554 and 0.0605, the “spine 2 BMD” value ([1]; intact mice) was 0.0602 and 0.0604 and 0.0601 and 0.0613 and 0.0620 and 0.0588 and 0.0632 and the “global 2 BMD (mean)” value ([1]; intact mice) was 0.0554. For the same compound, the “hindquart BMD (2) (mean)” value ([1]; intact mice) was 0.0605, the “spine 2 BMD (mean)” value ([1]; intact mice) was 0.0609 and the “global 1 BMD” value ([1]; intact mice) was 0.0486 and 0.0511 and 0.0543 and 0.0537 and 0.0533 and 0.0521 and 0.0560. For the same compound, the “hindquart BMD (1)” value ([1]; intact mice) was 0.0509 and 0.0565 and 0.0605 and 0.0577 and 0.0546 and 0.0544 and 0.0587, the “spine 1 BMD” value ([1]; intact mice) was 0.0511 and 0.0560 and 0.0593 and 0.0584 and 0.0571 and 0.0555 and 0.0623 and the “global 1 BMD (mean)” value ([1]; intact mice) was 0.0527. The “hindquart BMD (1) (mean)” value ([1]; intact mice) was 0.0562, the “spine 1 BMD (mean)” value ([1]; intact mice) was 0.0571 and the “Vertebral Compression” value ([2]; Ovx mice, p < 0.00001) was 85.57 ± 10.17 Newtons. The “Vertebral Compression” value ([2]; intact mice, p < 0.006) was 96.26 ± 15.92 Newtons.
